In patent US12122761B2, “2-azaspiro[3.4]octane derivatives as M4 agonists” (NOVARTIS AG, priority 2019, dated 2024):
pEC50: −log10 of the molar value.

How the values were obtained:
[1] = target: T1, Cloned human M1 receptor (CHRM1) stably expressed in HEK293 cells (Homo sapiens, UniProt P11229); experiment: CHRM1 Ca++ Flux Assay (agonist mode, FDSS 7000EX); format: cell-based; conditions: for M1 FDSS PA: Percent Activity; for pEC50: geometric mean if tested more than once
T1 construct: expressed in transfected cells; host or cells: HEK293
T1 sequence (P11229 1-460): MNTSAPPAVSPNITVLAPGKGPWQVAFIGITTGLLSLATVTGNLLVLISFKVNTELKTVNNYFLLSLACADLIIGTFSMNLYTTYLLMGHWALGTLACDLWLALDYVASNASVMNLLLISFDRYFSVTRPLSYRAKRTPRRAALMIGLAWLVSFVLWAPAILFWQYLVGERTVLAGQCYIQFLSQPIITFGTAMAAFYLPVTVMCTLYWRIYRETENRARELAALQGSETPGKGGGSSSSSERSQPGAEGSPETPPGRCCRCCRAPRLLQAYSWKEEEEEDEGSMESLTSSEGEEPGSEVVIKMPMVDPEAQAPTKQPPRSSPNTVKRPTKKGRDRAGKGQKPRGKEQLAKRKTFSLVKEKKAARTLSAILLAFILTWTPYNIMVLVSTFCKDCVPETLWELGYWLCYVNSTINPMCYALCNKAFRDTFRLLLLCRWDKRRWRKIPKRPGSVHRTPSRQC
Protocol: (§1) The above examples were characterized by measuring the intracellular mobilization of Ca++ ions caused by signaling events mediated by the receptor. The Intra-cellular Calcium flux levels were captured by the highly sensitive Ca++ indicator, Calcium Assay Kit (BD Biosciences, Catalog Number 640178). The fluorescent activity from all receptors were monitored by the fluorescent imager, FDSS 7000EX (Hamamatsu) over a span of 3 minutes.
(§2) Cloned human M1 receptor (CHRM1) was stably expressed in HEK293 cells and were grown and maintained in a monolayer culture with DMEM/High Glucose (Life Technologies) supplemented with 10% Fetal Bovine Serum, 1× Pen-Strep, and 0.5 mg/mL Geneticin in a humidified atmosphere (5% CO2) at 37° C. The cultures were grown to 90% confluency in T150 flasks (Corning) and washed with 1×DPBS and lifted with 0.05% Trypsin (Life Technologies). The cells were then spun (1K rpm, 3 minutes) and frozen using Recovery Cell Culture Freezing Media (Gibco Technologies). Cells were stored in liquid nitrogen and thawed a day before the assay.
Prior to the day of the assay, stable HEK293 M1 cells were thawed and plated on 384 well black walled clear bottom TC treated plates (Greiner Cat #781091) at 25K cells/well with DMEM/High Glucose supplemented with 10% FBS (Hyclone) Pen-Strep (Life Technologies) and kept overnight in a humidified atmosphere (5% CO2) at 37° C. The following day, cells were loaded with 20 uL Ca^++ dye (BD Biosciences) using Loading Buffer (HBSS +Ca/+Mg, 20 mM HEPES) and placed back in cell incubator for a minimum of 1 hour. The dye was replaced with 45 μL Assay Buffer (HBSS −Ca/−Mg, 20 mM HEPES) and kept at room temperature prior to running on cell imager. Compounds were prepared in Assay Buffer and 5 uL was added to the cells. The FDSS 7000EX (Hamamatsu) was used to acquire Ca++ traces for 3 minutes from cells treated with 11 point dose in triplicate in order to generate dose response curves in agonist mode. All compounds were serially diluted in DMSO then prepared in Assay Buffer for Ca^++ flux studies. The dose response curves were generated from the average of triplicate wells obtained from each data point and used a non-linear regression of four parameter dose response algorithm. The Percent Activity (PA) was measured to EC100 of Carbachol.

[2] = target: T2, human cloned CHRM2 receptor (M2_CHO cells) (Homo sapiens, UniProt P08172); experiment: CHRM2 Ca++ Flux Assay (agonist mode, FDSS 7000EX); format: cell-based; conditions: for M2 FDSS PA: Percent Activity measured to EC100 of Carbachol; for pEC50: agonist mode, geometric mean if tested more than once, read-out: M2 FDSS EC50
T2 construct: expressed in transfected cells; host or cells: CHO-K1
T2 sequence (P08172 1-466): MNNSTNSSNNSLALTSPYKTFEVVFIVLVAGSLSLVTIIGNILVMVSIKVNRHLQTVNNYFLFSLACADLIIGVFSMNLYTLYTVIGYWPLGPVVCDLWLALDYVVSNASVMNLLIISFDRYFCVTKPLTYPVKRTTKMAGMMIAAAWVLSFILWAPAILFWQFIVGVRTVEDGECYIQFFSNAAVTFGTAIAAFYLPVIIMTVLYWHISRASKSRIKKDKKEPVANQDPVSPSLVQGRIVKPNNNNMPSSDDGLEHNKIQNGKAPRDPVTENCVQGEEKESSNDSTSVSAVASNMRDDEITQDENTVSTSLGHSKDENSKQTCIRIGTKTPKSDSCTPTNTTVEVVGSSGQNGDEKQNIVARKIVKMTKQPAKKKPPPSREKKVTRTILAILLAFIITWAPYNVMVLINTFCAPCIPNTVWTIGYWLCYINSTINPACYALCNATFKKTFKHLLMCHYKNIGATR
Protocol: as §1
as §2, with “CHO-K1 cells stably expressing the” for “Cloned”, “cloned CHRM2” for “M1”, “(M2_CHO cells)” for “(CHRM1) was stably expressed in HEK293 cells and”, “F12/HAM” for “DMEM/High Glucose”, “0.4” for “0.5”, “80-9 0%” for “90%”
Prior to the day of the assay, stable M2 CHO cells were thawed and plated on Greiner 384 well TC treated plate at a density of 12K cells/well and kept overnight in a humidified atmosphere (5% CO2) at 37° C. The following day, the cells were loaded with Ca^++ dye (BD Biosciences) using Loading Buffer (HBSS +Ca/+Mg, 20 mM HEPES, 2.5 mM Probenecid) and placed back in cell incubator for a minimum of 1 hour and maximum of 2 hours. After incubation, the dye was replaced with Assay Buffer (HBSS −Ca/−Mg, 20 mM HEPES, 2.5 mM Probenecid) supplemented with 20 μM ATP (Sigma Aldrich) and kept at room temperature for 60 minutes prior before running on cell imager. The FDSS 7000EX (Hamamatsu) was used to acquire Ca^++ traces from cells in response to compound treatment and the data was used to generate dose response curves in agonist mode. All compounds were serially diluted in DMSO then prepared in Assay Buffer for Ca^++ flux studies. The dose response curves were generated from the average of triplicate wells obtained from each data point and used a non-linear regression of four parameter dose response algorithm. The Percent Activity (PA) was measured to EC100 of Carbachol.

M1 FDSS PA [1] [%]	pEC50 [1]	M2 FDSS PA [2] [%]	pEC50 [2]	SMILES
57	7.43	0		O=C(N1CC2(CC[C@@H](N3CCC(c4ccccc4OCC4CC4)CC3)C2)C1)C1(F)CC1 (single isomer, unassigned) [Example 7O, (R)-(6-(4-(2-(cyclopropylmethoxy)phenyl)piperidin-1-yl)-2-azaspiro[3.4]octan-2-yl)(1-fluorocyclopropyl)methanone or (R)-(6-(4-(2-(cyclopropylmethoxy)phenyl)piperidin-1-yl)-2-azaspiro[3.4]octan-2-yl)(1-fluorocyclopropyl)methanone]
46	7.54	0		O=C1CCCN1CCOc1ccccc1C1CCN([C@@H]2CCC3(C2)CN(C(=O)C2(F)CC2)C3)CC1.O=CO (single isomer, unassigned) [Example 7P, (R)-1-(2-(2-(1-(2-(1-fluorocyclopropane-1-carbonyl)-2-azaspiro[3.4]octan-6-yl)piperidin-4-yl)phenoxy)ethyl)pyrrolidin-2-one formate salt or (S)-1-(2-(2-(1-(2-(1-fluorocyclopropane-1-carbonyl)-2-azaspiro[3.4]octan-6-yl)piperidin-4-yl)phenoxy)ethyl)pyrrolidin-2-one formate salt]
37	6.87	0		O=C(N1CC2(CC[C@@H](N3CCC(c4ccccc4OCC4CCOCC4)CC3)C2)C1)C1(F)CC1 (single isomer, unassigned) [Example 7Q, (R)-(1-fluorocyclopropyl)(6-(4-(2-((tetrahydro-2H-pyran-4-yl)methoxy)phenyl)piperidin-1-yl)-2-azaspiro[3.4]octan-2-yl)methanone or (S)-(1-fluorocyclopropyl)(6-(4-(2-((tetrahydro-2H-pyran-4-yl)methoxy)phenyl)piperidin-1-yl)-2-azaspiro[3.4]octan-2-yl)methanone]
0	< 4.60	15	5.18	Cc1nnc(COc2ccccc2C2CCN([C@@H]3CCC4(C3)CN(C(=O)C3(F)CC3)C4)CC2)s1 (single isomer, unassigned) [Example 7R, (R)-(1-fluorocyclopropyl)(6-(4-(2-((5-methyl-1,3,4-thiadiazol-2-yl)methoxy)phenyl)piperidin-1-yl)-2-azaspiro[3.4]octan-2-yl)methanone or (S)-(1-fluorocyclopropyl)(6-(4-(2-((5-methyl-1,3,4-thiadiazol-2-yl)methoxy)phenyl)piperidin-1-yl)-2-azaspiro[3.4]octan-2-yl)methanone]
0	< 4.60	0		CCOc1ccccc1C1CCN([C@@H]2CCC3(C2)CN(C(=O)C2(F)CC2)C3)CC1 (single isomer, unassigned) [Example 7S, (R)-(6-(4-(2-ethoxyphenyl)piperidin-1-yl)-2-azaspiro[3.4]octan-2-yl)(1-fluorocyclopropyl)methanone or (S)-(6-(4-(2-ethoxyphenyl)piperidin-1-yl)-2-azaspiro[3.4]octan-2-yl)(1-fluorocyclopropyl)methanone]
32	5.36	19	4.73	O=C(N1CC2(CC[C@@H](N3CCC(c4ccccc4OCC4CC4)CC3)C2)C1)C1(F)CC1 (single isomer, unassigned) [Example 7T, (R)-(6-(4-(2-(cyclopropylmethoxy)phenyl)piperidin-1-yl)-2-azaspiro[3.4]octan-2-yl)(1-fluorocyclopropyl)methanone or (R)-(6-(4-(2-(cyclopropylmethoxy)phenyl)piperidin-1-yl)-2-azaspiro[3.4]octan-2-yl)(1-fluorocyclopropyl)methanone]
0	< 4.60	0		Cc1noc(C)c1COc1ccccc1C1CCN([C@@H]2CCC3(C2)CN(C(=O)C2(F)CC2)C3)CC1 (single isomer, unassigned) [Example 7U, (R)-(6-(4-(2-((3,5-dimethylisoxazol-4-yl)methoxy)phenyl)piperidin-1-yl)-2-azaspiro[3.4]octan-2-yl)(1-fluorocyclopropyl)methanone or (S)-(6-(4-(2-((3,5-dimethylisoxazol-4-yl)methoxy)phenyl)piperidin-1-yl)-2-azaspiro[3.4]octan-2-yl)(1-fluorocyclopropyl)methanone]
18	5.64	0		Cc1ncc(COc2ccccc2C2CCN([C@@H]3CCC4(C3)CN(C(=O)C3(F)CC3)C4)CC2)o1 (single isomer, unassigned) [Example 7V, (R)-(1-fluorocyclopropyl)(6-(4-(2-((2-methyloxazol-5-yl)methoxy)phenyl)piperidin-1-yl)-2-azaspiro[3.4]octan-2-yl)methanone or (S)-(1-fluorocyclopropyl)(6-(4-(2-((2-methyloxazol-5-yl)methoxy)phenyl)piperidin-1-yl)-2-azaspiro[3.4]octan-2-yl)methanone]
80	8.70	0		Cc1nnc(COc2ccccc2C2CCN([C@@H]3CCC4(C3)CN(C(=O)C3(F)CC3)C4)CC2)o1 (single isomer, unassigned) [Example 7W, (R)-(1-fluorocyclopropyl)(6-(4-(2-((5-methyl-1,3,4-oxadiazol-2-yl)methoxy)phenyl)piperidin-1-yl)-2-azaspiro[3.4]octan-2-yl)methanone or (S)-(1-fluorocyclopropyl)(6-(4-(2-((5-methyl-1,3,4-oxadiazol-2-yl)methoxy)phenyl)piperidin-1-yl)-2-azaspiro[3.4]octan-2-yl)methanone]
